Laboratory results published in patent US6914045B2, “Glycopeptide antibiotics” (Wyeth Holdings Corporation, priority 2001, dated 2005).
In brackets after ≈: the same amount, converted by molar mass.

Assays:
Assay in all cases: in vitro antibacterial evaluation, MIC by broth dilution
Assay type in all cases: cell-based
Enterococcus sp. = conditions: broth dilution, 18 hours at 35° C.; for MIC Enterococcus faecalis (ATCC 29212): strain ATCC 29212; for MIC Enterococcus faecium (GC 2243): strain GC 2243; for MIC Enterococcus faecalis (GC 4554): strain GC 4554; for MIC Enterococcus faecium (GC 4556): strain GC 4556; for MIC Enterococcus faecium (GC 4557): strain GC 4557; for MIC Enterococcus avium (GC 4558): strain GC 4558; for MIC Enterococcus faecalis (GC 6189): strain GC 6189
Summary of the method: (§1)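 Following National Committee for Clinical Laboratory Standards recommendations (M7-A2), susceptibility was measured by dilution in Muller-Hinton II […]. Bacteria were seeded at 5×10^5 CFU/mL against compound concentrations from 64 down to 0.06 μg/mL.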

Streptococcus sp. = conditions: broth dilution, 18 hours at 35° C.
Summary of the method: as §1

Escherichia coli = test system: Escherichia coli
Summary of the method: as §1

Staphylococcus sp. = conditions: broth dilution, 18 hours at 35° C.
Summary of the method: as §1

- MIC Enterococcus faecalis (GC 2242) (Enterococcus sp.; Enterococcus faecalis (GC 2242)): 0.5 to 1 µg/mL
- MIC Enterococcus faecalis (GC 2691) (Enterococcus sp.; Enterococcus faecalis (GC 2691)): 0.5 µg/mL (≈ 0.362 µM)
- MIC Enterococcus faecalis (GC 3059) (Enterococcus sp.; Enterococcus faecalis (GC 3059)): 0.5 µg/mL (≈ 0.362 µM)
- MIC Enterococcus faecalis (ATCC 29212) (Enterococcus sp.; inoculum 5×10^5 CFU/mL): 0.5 to 1 µg/mL
- MIC Enterococcus faecium (GC 2243) (Enterococcus sp.; inoculum 5×10^5 CFU/mL): <0.5 to 1 µg/mL
- MIC Enterococcus faecalis (GC 4554) (Enterococcus sp.; inoculum 5×10^5 CFU/mL): 0.5 to 1 µg/mL
- MIC Enterococcus faecium (GC 4556) (Enterococcus sp.; inoculum 5×10^5 CFU/mL): 1 to 2 µg/mL
- MIC Enterococcus faecium (GC 4557) (Enterococcus sp.; inoculum 5×10^5 CFU/mL): 1 to 2 µg/mL
- MIC Enterococcus avium (GC 4558) (Enterococcus sp.; inoculum 5×10^5 CFU/mL): 0.5 to 1 µg/mL
- MIC Enterococcus faecalis (GC 6189) (Enterococcus sp.; inoculum 5×10^5 CFU/mL): 0.5 µg/mL (≈ 0.362 µM)
- MIC Enterococcus faecalis (ATCC 29212) (Enterococcus sp.): 0.5 to 1 µg/mL
- MIC Enterococcus faecalis (GC 2242) (Enterococcus sp.; strain GC 2242): 0.5 to 1 µg/mL
- MIC Enterococcus faecium (GC 2243) (Enterococcus sp.): <0.5 to 1 µg/mL
- MIC Enterococcus faecalis (GC 2691) (Enterococcus sp.; strain GC 2691): 0.5 µg/mL (≈ 0.362 µM)
- MIC Enterococcus faecalis (GC 3059) (Enterococcus sp.; strain GC 3059): 0.5 µg/mL (≈ 0.362 µM)
- MIC Enterococcus faecalis (GC 4554) (Enterococcus sp.): 0.5 to 1 µg/mL
- MIC Enterococcus faecium (GC 4556) (Enterococcus sp.): 1 to 2 µg/mL
- MIC Enterococcus faecium (GC 4557) (Enterococcus sp.): 1 to 2 µg/mL
- MIC Enterococcus avium (GC 4558) (Enterococcus sp.): 0.5 to 1 µg/mL
- MIC Enterococcus faecalis (GC 6189) (Enterococcus sp.): 0.5 µg/mL (≈ 0.362 µM)
- MIC Streptococcus agalactiae (GC 4564) (Streptococcus sp.; Streptococcus agalactiae (GC 4564)): <0.12 µg/mL
- MIC Streptococcus pneumoniae (ATCC 6301) (Streptococcus sp.; Streptococcus pneumoniae (ATCC 6301)): 0.12 µg/mL (≈ 0.087 µM)
- MIC Streptococcus pneumoniae (GC 1894) (Streptococcus sp.; Streptococcus pneumoniae (GC 1894)): 0.12 µg/mL (≈ 0.087 µM)
- MIC Streptococcus pyogenes (GC 4563) (Streptococcus sp.; Streptococcus pyogenes (GC 4563)): >0.12 µg/mL
- MIC Streptococcus pyogenes (ID-3187) (Streptococcus sp.; Streptococcus pyogenes (ID-3187)): <0.5 µg/mL
- MIC Streptococcus pneumoniae (ATCC 6301) (Streptococcus sp.; strain ATCC 6301): 0.12 µg/mL (≈ 0.087 µM)
- MIC Streptococcus pneumoniae (GC 1894) (Streptococcus sp.; strain GC 1894): 0.12 µg/mL (≈ 0.087 µM)
- MIC Streptococcus pyogenes (GC 4563) (Streptococcus sp.; strain GC 4563): >0.12 µg/mL
- MIC Streptococcus agalactiae (GC 4564) (Streptococcus sp.; strain GC 4564): <0.12 µg/mL
- MIC Streptococcus pyogenes (ID-3187) (Streptococcus sp.; strain ID-3187): <0.5 µg/mL
- MIC Escherichia coli (ATCC 25922) (Escherichia coli; strain ATCC 25922, 18 hours at 35° C.): >64 µg/mL
- MIC Escherichia coli (GC 4559) (Escherichia coli; strain GC 4559, 18 hours at 35° C.): >64 µg/mL
- MIC Escherichia coli (GC 4560) (Escherichia coli; strain GC 4560, 18 hours at 35° C.): 0.5 to 2 µg/mL
- MIC Staphylococcus aureus (GC 3051) (Staphylococcus sp.; strain GC 3051): 0.5 µg/mL (≈ 0.362 µM)
- MIC Staphylococcus aureus (GC 3053) (Staphylococcus sp.; strain GC 3053): 0.5 µg/mL (≈ 0.362 µM)
- MIC Staphylococcus aureus (GC 4545) (Staphylococcus sp.; strain GC 4545): 0.5 to 1 µg/mL
- MIC Coagulase Negative Staphylococcus (GC 4547) (Staphylococcus sp.; strain GC 4547): <0.5 to 2 µg/mL
- MIC Coagulase Negative Staphylococcus (GC 4548) (Staphylococcus sp.; strain GC 4548): <0.5 to 1 µg/mL
- MIC Coagulase Negative Staphylococcus (GC 4549) (Staphylococcus sp.; strain GC 4549): <0.5 to 1 µg/mL
- MIC Coagulase Negative Staphylococcus (GC 4551) (Staphylococcus sp.; strain GC 4551): <0.5 to 1 µg/mL
- MIC Coagulase Negative Staphylococcus (GC 6257) (Staphylococcus sp.; strain GC 6257): 1 µg/mL (≈ 0.725 µM)
- MIC Coagulase Negative Staphylococcus (ID-3941) (Staphylococcus sp.; strain ID-3941): <0.5 µg/mL
Structure (SMILES): CC(c1ccccc1)C1NC(=O)CNC(=O)C(CO)NC(=O)C(C(O)C2CNC(=N)N2C2OC(CO)C(O)C(O)C2O)NC(=O)C(C(O)C2CNC(=NC(=O)C(C)(C)C)N2)NC(=O)C(Cc2ccc(OC3OC(CO)C(OC4OC(CO)C(O)C(O)C4O)C(O)C3O)cc2)NC1=O (stereo not shown) [Example 155]
- MIC Staphylococcus haemolyticus (GC 4546) (Staphylococcus sp.; strain GC 4546): <0.5 to 1 µg/mL
